Species on record: Rattus norvegicus
Test: DrugMatrix - Regimen: Daily Repeat
Format: toxicity, organism-based, Sprague-Dawley
Set-up: regimen Daily Repeat, gender Male, age 6-8 weeks
Settings: in vivo, iv, vehicle 100 % SALINE; for ABSOLUTE BASOPHIL / ABSOLUTE EOSINOPHIL / ABSOLUTE LYMPHOCYTE / ABSOLUTE MONOCYTE / ABSOLUTE SEGMENTED NEUTROPHIL / BASOPHIL / EOSINOPHIL / ERYTHROCYTE COUNT / HEMATOCRIT / HEMOGLOBIN / LEUKOCYTE COUNT / LYMPHOCYTE / MEAN CORPUSCULAR HEMOGLOBIN / MEAN CORPUSCULAR HEMOGLOBIN CONCENTRATION / MEAN CORPUSCULAR VOLUME / MONOCYTE / NEUTROPHIL / NUCLEATED RED BLOOD CELLS / PLATELET COUNT: tissue Blood; for ALANINE AMINOTRANSFERASE / ALBUMIN / ALKALINE PHOSPHATASE / ASPARTATE AMINOTRANSFERASE / BLOOD UREA NITROGEN / CARBON DIOXIDE / CHLORIDE / CHOLESTEROL / CREATINE PHOSPHOKINASE / CREATININE / GLUCOSE / LACTATE DEHYDROGENASE / LIPASE / PHOSPHORUS / POTASSIUM / SODIUM / TOTAL BILIRUBIN / TOTAL PROTEIN / URIC ACID: tissue Plasma
[1] = 0 mg/kg, 72 h, dose level Control, time 3 day
[2] = 0 mg/kg, 120 h, dose level Control, time 5 day
[3] = 29 mg/kg, 72 h, dose level Low, time 3 day

C[n+]1ccccc1/C=N/O.[Cl-] [PRALIDOXIME CHLORIDE]
ABSOLUTE BASOPHIL [1]: 0 CELLS/uL | ABSOLUTE EOSINOPHIL [1]: 53.17 CELLS/uL | ABSOLUTE LYMPHOCYTE [1]: 13731.5 CELLS/uL | ABSOLUTE MONOCYTE [1]: 186.17 CELLS/uL | ABSOLUTE SEGMENTED NEUTROPHIL [1]: 1645.83 CELLS/uL | BASOPHIL [1]: 0% | EOSINOPHIL [1]: 0.33% | ERYTHROCYTE COUNT [1]: 5.57 x10E6/uL | HEMATOCRIT [1]: 36.33% | HEMOGLOBIN [1]: 13.47 G/DL | LEUKOCYTE COUNT [1]: 15.62 x10E3/uL | LYMPHOCYTE [1]: 88.5% | MEAN CORPUSCULAR HEMOGLOBIN [1]: 24.22 pg | MEAN CORPUSCULAR HEMOGLOBIN CONCENTRATION [1]: 37.1 G/DL | MEAN CORPUSCULAR VOLUME [1]: 65.35 fL | MONOCYTE [1]: 1.17% | NEUTROPHIL [1]: 10% | NUCLEATED RED BLOOD CELLS [1]: 0.17 /100WBC | PLATELET COUNT [1]: 1295.5 x10E3/uL | ALANINE AMINOTRANSFERASE [1]: 46.83 u/L | ALBUMIN [1]: 4.37 G/DL | ALKALINE PHOSPHATASE [1]: 414.33 u/L | ASPARTATE AMINOTRANSFERASE [1]: 72.5 u/L | BLOOD UREA NITROGEN [1]: 17 mg/dL | CARBON DIOXIDE [1]: 23.5 mmol/L | CHLORIDE [1]: 102 MEQ/L | CHOLESTEROL [1]: 80.33 mg/dL | CREATINE PHOSPHOKINASE [1]: 207.83 u/L | CREATININE [1]: 0.22 mg/dL | GLUCOSE [1]: 172.17 mg/dL | LACTATE DEHYDROGENASE [1]: 131 u/L | LIPASE [1]: 10.33 u/L | PHOSPHORUS [1]: 11.75 mg/dL | POTASSIUM [1]: 6.83 MEQ/L | SODIUM [1]: 145.28 MEQ/L | TOTAL BILIRUBIN [1]: 0.22 mg/dL | TOTAL PROTEIN [1]: 6.22 G/DL | URIC ACID [1]: 1.9 mg/dL | ABSOLUTE BASOPHIL [2]: 0 CELLS/uL | ABSOLUTE EOSINOPHIL [2]: 33 CELLS/uL | ABSOLUTE LYMPHOCYTE [2]: 12184 CELLS/uL | ABSOLUTE MONOCYTE [2]: 108 CELLS/uL | ABSOLUTE SEGMENTED NEUTROPHIL [2]: 958.33 CELLS/uL | BASOPHIL [2]: 0% | EOSINOPHIL [2]: 0.17% | ERYTHROCYTE COUNT [2]: 5.9 x10E6/uL | HEMATOCRIT [2]: 36.58% | HEMOGLOBIN [2]: 13.33 G/DL | LEUKOCYTE COUNT [2]: 13.28 x10E3/uL | LYMPHOCYTE [2]: 91.17% | MEAN CORPUSCULAR HEMOGLOBIN [2]: 22.67 pg | MEAN CORPUSCULAR HEMOGLOBIN CONCENTRATION [2]: 36.47 G/DL | MEAN CORPUSCULAR VOLUME [2]: 62.13 fL | MONOCYTE [2]: 0.83% | NEUTROPHIL [2]: 7.83% | NUCLEATED RED BLOOD CELLS [2]: 0.33 /100WBC | PLATELET COUNT [2]: 1475.33 x10E3/uL | ALANINE AMINOTRANSFERASE [2]: 47 u/L | ALBUMIN [2]: 4.35 G/DL | ALKALINE PHOSPHATASE [2]: 368.33 u/L | ASPARTATE AMINOTRANSFERASE [2]: 90.83 u/L | BLOOD UREA NITROGEN [2]: 15.5 mg/dL | CARBON DIOXIDE [2]: 26.5 mmol/L | CHLORIDE [2]: 103.33 MEQ/L | CHOLESTEROL [2]: 71.83 mg/dL | CREATINE PHOSPHOKINASE [2]: 585.33 u/L | CREATININE [2]: 0.19 mg/dL | GLUCOSE [2]: 171.17 mg/dL | LACTATE DEHYDROGENASE [2]: 388.83 u/L | LIPASE [2]: 10.83 u/L | PHOSPHORUS [2]: 11.75 mg/dL | POTASSIUM [2]: 6.21 MEQ/L | SODIUM [2]: 143.7 MEQ/L | TOTAL BILIRUBIN [2]: 0.17 mg/dL | TOTAL PROTEIN [2]: 6.17 G/DL | URIC ACID [2]: 1.98 mg/dL | ABSOLUTE BASOPHIL [3]: 0 CELLS/uL | ABSOLUTE EOSINOPHIL [3]: 0 CELLS/uL | ABSOLUTE LYMPHOCYTE [3]: 13602.67 CELLS/uL | ABSOLUTE MONOCYTE [3]: 59 CELLS/uL | ABSOLUTE SEGMENTED NEUTROPHIL [3]: 1538.33 CELLS/uL | BASOPHIL [3]: 0% | EOSINOPHIL [3]: 0% | ERYTHROCYTE COUNT [3]: 5.23 x10E6/uL | HEMATOCRIT [3]: 33.13% | HEMOGLOBIN [3]: 12.77 G/DL | LEUKOCYTE COUNT [3]: 15.2 x10E3/uL | LYMPHOCYTE [3]: 89.67% | MEAN CORPUSCULAR HEMOGLOBIN [3]: 24.4 pg | MEAN CORPUSCULAR HEMOGLOBIN CONCENTRATION [3]: 38.53 G/DL | MEAN CORPUSCULAR VOLUME [3]: 63.37 fL | MONOCYTE [3]: 0.33% | NEUTROPHIL [3]: 10% | NUCLEATED RED BLOOD CELLS [3]: 0.33 /100WBC | PLATELET COUNT [3]: 1243.67 x10E3/uL | ALANINE AMINOTRANSFERASE [3]: 60 u/L | ALBUMIN [3]: 4.27 G/DL | ALKALINE PHOSPHATASE [3]: 485.33 u/L | ASPARTATE AMINOTRANSFERASE [3]: 76.33 u/L | BLOOD UREA NITROGEN [3]: 18.67 mg/dL | CARBON DIOXIDE [3]: 25 mmol/L | CHLORIDE [3]: 104.67 MEQ/L | CHOLESTEROL [3]: 77.67 mg/dL | CREATINE PHOSPHOKINASE [3]: 170 u/L | CREATININE [3]: 0.26 mg/dL | GLUCOSE [3]: 180.67 mg/dL | LACTATE DEHYDROGENASE [3]: 87.67 u/L | LIPASE [3]: 11 u/L | PHOSPHORUS [3]: 13.93 mg/dL | POTASSIUM [3]: 6.97 MEQ/L | SODIUM [3]: 146.7 MEQ/L | TOTAL BILIRUBIN [3]: 0.23 mg/dL | TOTAL PROTEIN [3]: 5.97 G/DL | URIC ACID [3]: 1.47 mg/dL

Reference: ChEMBL document CHEMBL3885881, “DrugMatrix”
